Data from BindingDB's records for doi:10.1016/j.bmcl.2009.07.064 (University of Glasgow, 2009).

Columns and labels:
[1] = target: Sodium-dependent dopamine transporter (Rattus norvegicus, UniProt P23977); experiment: Displacement of [3H]WIN-35428 from DAT in Sprague-Dawley rat brain after 2 hrs by liquid scintillation analysis
Transporter = Transporter (Rattus norvegicus, UniProt Q63380); experiment: Displacement of [3H]nisoxetine from NAT in Sprague-Dawley rat brain after 4 hrs by liquid scintillation analysis
[2] = target: Sodium-dependent serotonin transporter (Rattus norvegicus, UniProt P31652); experiment: Displacement of [3H]citalopram from SERT in Sprague-Dawley rat brain after 2 hrs by liquid scintillation analysis
Sequence of Sodium-dependent serotonin transporter (P31652 whole entry): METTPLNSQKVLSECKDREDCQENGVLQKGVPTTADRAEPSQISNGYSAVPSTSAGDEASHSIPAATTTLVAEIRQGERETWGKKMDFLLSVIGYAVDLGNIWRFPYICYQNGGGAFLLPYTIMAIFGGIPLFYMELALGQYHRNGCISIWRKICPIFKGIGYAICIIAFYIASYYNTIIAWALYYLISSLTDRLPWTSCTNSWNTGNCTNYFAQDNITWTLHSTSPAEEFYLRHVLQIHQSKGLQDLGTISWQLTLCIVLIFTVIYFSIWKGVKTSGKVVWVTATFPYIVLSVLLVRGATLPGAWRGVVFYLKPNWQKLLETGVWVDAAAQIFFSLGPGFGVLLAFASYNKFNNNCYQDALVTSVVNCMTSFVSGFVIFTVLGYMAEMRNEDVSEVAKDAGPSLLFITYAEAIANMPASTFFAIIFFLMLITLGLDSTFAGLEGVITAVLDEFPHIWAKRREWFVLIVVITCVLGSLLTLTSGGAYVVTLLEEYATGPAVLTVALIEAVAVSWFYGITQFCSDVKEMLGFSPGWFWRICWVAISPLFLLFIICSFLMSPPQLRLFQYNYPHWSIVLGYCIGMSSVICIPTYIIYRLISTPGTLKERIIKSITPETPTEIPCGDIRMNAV

Sequence of Transporter (Q63380 whole entry): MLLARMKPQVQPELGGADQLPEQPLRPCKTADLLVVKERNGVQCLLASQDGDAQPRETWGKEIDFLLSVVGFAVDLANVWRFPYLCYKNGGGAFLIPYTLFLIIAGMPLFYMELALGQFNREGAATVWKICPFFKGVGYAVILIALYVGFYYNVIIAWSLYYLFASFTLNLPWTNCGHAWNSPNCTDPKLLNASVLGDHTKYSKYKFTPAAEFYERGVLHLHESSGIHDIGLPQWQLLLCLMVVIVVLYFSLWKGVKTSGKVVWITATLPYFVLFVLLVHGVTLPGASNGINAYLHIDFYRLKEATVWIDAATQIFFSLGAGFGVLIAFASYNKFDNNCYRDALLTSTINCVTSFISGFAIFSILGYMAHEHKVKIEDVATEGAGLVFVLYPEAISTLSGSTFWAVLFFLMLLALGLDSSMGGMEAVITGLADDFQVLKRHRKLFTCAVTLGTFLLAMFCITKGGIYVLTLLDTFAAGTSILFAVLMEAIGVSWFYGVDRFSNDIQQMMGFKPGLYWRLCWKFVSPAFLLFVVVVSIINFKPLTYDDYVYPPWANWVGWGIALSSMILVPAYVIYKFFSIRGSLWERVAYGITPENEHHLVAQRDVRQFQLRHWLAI
Sequence of Sodium-dependent dopamine transporter (P23977 whole entry): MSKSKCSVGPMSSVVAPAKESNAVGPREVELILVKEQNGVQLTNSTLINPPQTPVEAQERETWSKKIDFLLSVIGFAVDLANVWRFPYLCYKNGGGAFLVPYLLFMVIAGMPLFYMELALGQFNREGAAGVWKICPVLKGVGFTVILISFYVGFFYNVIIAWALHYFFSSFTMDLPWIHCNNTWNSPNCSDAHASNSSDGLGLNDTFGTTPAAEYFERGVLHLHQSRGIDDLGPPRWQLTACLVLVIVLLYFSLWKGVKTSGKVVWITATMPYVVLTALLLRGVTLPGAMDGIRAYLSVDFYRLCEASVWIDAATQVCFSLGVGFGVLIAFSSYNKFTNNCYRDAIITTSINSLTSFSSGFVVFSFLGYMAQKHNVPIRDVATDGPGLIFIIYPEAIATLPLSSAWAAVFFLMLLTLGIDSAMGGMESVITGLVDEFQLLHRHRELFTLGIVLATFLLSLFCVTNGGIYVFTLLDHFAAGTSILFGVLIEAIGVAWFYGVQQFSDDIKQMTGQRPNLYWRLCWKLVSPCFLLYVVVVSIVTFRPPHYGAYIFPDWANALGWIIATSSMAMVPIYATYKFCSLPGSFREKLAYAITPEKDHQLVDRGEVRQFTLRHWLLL

| SMILES | Ki [1] | Ki (Transporter) | Ki [2] |
| --- | --- | --- | --- |
| Ic1ccccc1O[C@@H](c1ccccc1)[C@H]1CNCCO1 [(2R,3S)-2-[(2-Iodophenoxy)phenylmethyl]morpholine] | 526 nM | 8.4 nM | 51.5 nM |
| Ic1cccc(O[C@@H](c2ccccc2)[C@H]2CNCCO2)c1 [(2R,3S)-2-[(3-Iodophenoxy)phenylmethyl]morpholine] | 1900 nM | 1700 nM | 154 nM |
| Ic1ccc(O[C@@H](c2ccccc2)[C@H]2CNCCO2)cc1 [(2R,3S)-2-[(4-Iodophenoxy)phenylmethyl]morpholine] | 2100 nM | 1100 nM | 34.5 nM |
